Measured values: patent US20160091487A1, “ENGINEERING INDIVIDUALLY ADDRESSABLE CELLULAR SPHEROIDS USING AQUEOUS TWO-PHASE SYSTEMS” (priority 2012, published 2016)

Test system: MDA-MB-157 spheroids
Experiment: Viability of ATPS-generated cancer cell spheroids treated with cisplatin (PRESTO BLUE enzymatic assay)
Assay type: cell-based
Details: cisplatin 25 to 200 μM, four days incubation
Source text: Component 1 contains 5%(w/w) polyethylene glycol (PEG, Mw: 35,000) and component 2 contains 12.8%(w/w) Dextran (DEX, Mw: 500,000). […] First, the PEG phase is loaded into wells of a well plate (destination plate) and this plate is placed on the work surface of a robotic liquid handler (FIG. 2). Then cells are harvested from a culture dish, mixed with the DEX phase at a 1:1 volumetric ratio to reduce DEX concentration to 6.4% (w/w), and loaded into a second plate (source plate). This plate is also placed on the work surface of the liquid handler. Pipette tips are mounted onto the dispense head of the liquid handler (FIG. 3) and are immersed into the source plate to load a defined volume (˜0.3 microliters) of the cell suspension in DEX phase. After retraction from the source plate, pipette tips are lowered into the destination plate and dispense their content. Dispensed solution forms a single droplet containing cells in each well and the droplet remains immiscible from its surrounding PEG phase (FIG. 4a). Cells aggregate and form an individual spheroid in each well (FIG. 4b and FIG. 5). […] The drug, diluted with culture media, was renewed once by the addition of 50 μL after two days of incubation.

N.N.[Cl][Pt][Cl] [cisplatin]
percent viability trend against drug concentration: gradual decrease as the cisplatin concentration increases
